Data reported in ChEMBL document CHEMBL2434911, “Flavone-based analogues inspired by the natural product simocyclinone D8 as DNA gyrase inhibitors” (Bioorg Med Chem Lett, 2013).
The source made the active and inactive calls. No cut-off for these calls is given here.

Assays:
Escherichia coli [1] = test: Inhibition of cleavage activity of Escherichia coli DNA gyrase using relaxed pBR322 as substrate at 200 uM after 10 mins by agarose gel electrophoresis analysis relative to control
[2] = Inhibition of supercoiling activity of Escherichia coli DNA gyrase using relaxed pBR322 as substrate after 15 mins by ethidium bromide staining
[3] = molecular target: T1, DNA topoisomerase 2-alpha (Homo sapiens, UniProt P11388); test: Inhibition of cleavage activity of human topoisomerase 2 using relaxed pBR322 as substrate at 200 uM after 10 mins by agarose gel electrophoresis analysis relative to control
[4] = molecular target: T1, DNA topoisomerase 2-alpha; test: Inhibition of human topoisomerase 2 using […] as substrate after 10 mins by decatenation assay
Bos taurus = species: Bos taurus; test: Inhibition of supercoiling activity of calf thymus topoisomerase 1 using […] as substrate after 15 mins by ethidium bromide staining
Escherichia coli [5] = test: Inhibition of Escherichia coli DNA gyrase interaction to 5'-biotinylated DNA after 4 mins by surface plasmon resonance analysis

T1 sequence (P11388 whole entry): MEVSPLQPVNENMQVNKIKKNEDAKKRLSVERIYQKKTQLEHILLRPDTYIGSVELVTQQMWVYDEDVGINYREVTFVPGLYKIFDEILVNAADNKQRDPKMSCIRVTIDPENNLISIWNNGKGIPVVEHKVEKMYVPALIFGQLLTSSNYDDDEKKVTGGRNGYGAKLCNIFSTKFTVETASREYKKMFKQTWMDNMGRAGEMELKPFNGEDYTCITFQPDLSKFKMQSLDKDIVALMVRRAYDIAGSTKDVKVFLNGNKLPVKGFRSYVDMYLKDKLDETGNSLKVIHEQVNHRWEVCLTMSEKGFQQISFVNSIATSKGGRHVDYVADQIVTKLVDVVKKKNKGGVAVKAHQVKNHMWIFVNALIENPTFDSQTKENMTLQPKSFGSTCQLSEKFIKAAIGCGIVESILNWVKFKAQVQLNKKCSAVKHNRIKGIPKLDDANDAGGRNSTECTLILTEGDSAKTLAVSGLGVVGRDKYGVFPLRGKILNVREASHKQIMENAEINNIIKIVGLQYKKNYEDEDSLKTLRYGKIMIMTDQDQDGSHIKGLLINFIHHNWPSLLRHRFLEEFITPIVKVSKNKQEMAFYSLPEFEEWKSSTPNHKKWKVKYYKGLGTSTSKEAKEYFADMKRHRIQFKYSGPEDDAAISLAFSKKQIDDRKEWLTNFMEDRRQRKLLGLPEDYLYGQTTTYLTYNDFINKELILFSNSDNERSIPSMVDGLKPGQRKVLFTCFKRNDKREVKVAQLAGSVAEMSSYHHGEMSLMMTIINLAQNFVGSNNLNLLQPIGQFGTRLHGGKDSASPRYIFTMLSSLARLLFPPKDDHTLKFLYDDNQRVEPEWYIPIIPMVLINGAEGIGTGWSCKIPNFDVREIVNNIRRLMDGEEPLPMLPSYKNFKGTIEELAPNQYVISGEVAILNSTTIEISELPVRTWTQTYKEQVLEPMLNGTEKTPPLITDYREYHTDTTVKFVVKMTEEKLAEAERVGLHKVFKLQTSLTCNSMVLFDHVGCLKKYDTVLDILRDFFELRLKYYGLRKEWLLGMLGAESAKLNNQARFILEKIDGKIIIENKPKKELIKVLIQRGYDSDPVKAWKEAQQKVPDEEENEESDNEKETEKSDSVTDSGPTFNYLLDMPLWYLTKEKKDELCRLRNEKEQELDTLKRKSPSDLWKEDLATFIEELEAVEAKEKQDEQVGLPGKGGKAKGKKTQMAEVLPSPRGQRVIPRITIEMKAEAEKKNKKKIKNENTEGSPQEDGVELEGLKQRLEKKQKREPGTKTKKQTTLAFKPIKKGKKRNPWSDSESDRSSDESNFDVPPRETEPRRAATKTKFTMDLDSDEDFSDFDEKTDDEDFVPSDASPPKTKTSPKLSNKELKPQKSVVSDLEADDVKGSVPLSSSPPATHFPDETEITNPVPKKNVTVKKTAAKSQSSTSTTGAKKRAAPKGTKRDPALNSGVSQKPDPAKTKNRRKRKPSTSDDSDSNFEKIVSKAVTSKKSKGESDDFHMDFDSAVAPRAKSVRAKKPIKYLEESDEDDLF

| Structure (SMILES) | fold change (FC) (Escherichia coli [1]) | IC50 [2] [µM] | fold change (FC) [3] | IC50 [4] [µM] | inhibition (Bos taurus) | inhibition (Escherichia coli [5]) |
| --- | --- | --- | --- | --- | --- | --- |
| O=C(CCCCCC(=O)Oc1c(-c2ccc(O)c(O)c2)oc2cc(O)cc(O)c2c1=O)NCC(=O)Nc1ccc(O)c(CO)c1 | 1.9 | > 200 | < 1 | 78.9 | inactive |  |
| O=C(CCCCCC(=O)Oc1c(-c2ccc(O)c(O)c2)oc2cc(O)cc(O)c2c1=O)NCC(=O)Nc1ccc(O)cc1 | 5 | 84.7 | 2.4 | > 200 | Active | inactive |
| COC(=O)/C=C/C=C/C=C/C=C/C(=O)Nc1c(O)c2ccc(O)c(Cl)c2oc1=O |  | 50 |  |  |  |  |
| O=C(CCCCCC(=O)Oc1c(-c2ccc(O)c(O)c2)oc2cc(O)cc(O)c2c1=O)NCC(=O)Nc1ccc(CO)cc1 | 3 | > 200 | 2.1 | > 200 | inactive |  |
| O=c1c(O)c(-c2ccc(O)c(O)c2)oc2cc(O)cc(O)c12 |  |  |  |  | Active |  |
| O=C(O)Cc1ccc(NC(=O)CNC(=O)CCCCCC(=O)Oc2c(-c3ccc(O)c(O)c3)oc3cc(O)cc(O)c3c2=O)cc1 | 1.8 | > 200 | < 1 | > 200 | inactive |  |
| COC(=O)CCCCCCCCC(=O)Oc1c(-c2ccc(O)c(O)c2)oc2cc(O)cc(O)c2c1=O | < 1 | > 200 | < 1 | > 200 | inactive |  |
| CC(=O)O[C@@H]1[C@@H](C)O[C@@H](c2ccc3c(c2O)[C@@H](O)[C@]24O[C@@]2(C3=O)[C@@]2(O)C(=O)C=C(C)C[C@@]2(O)C[C@@H]4O)C[C@H]1OC(=O)/C=C/C=C/C=C/C=C/C(=O)Nc1c(O)c2ccc(O)c(Cl)c2oc1=O [SIMOCYCLINONE D8] | < 1 | 0.41 |  |  |  |  |
| O=C(CCCCCC(=O)Oc1c(-c2ccc(O)c(O)c2)oc2cc(O)cc(O)c2c1=O)NCC(=O)Nc1ccccc1 | 7.8 | 48.6 | 2.7 | 149 | Active | inactive |
